Source: US20090143279A1 (priority 2007, published 2009)
Where two headings read alike, the source gives them in different places.

How the values were obtained:
[1] = system: nuOXPHOS transcripts; type: cell-based, mouse
[2] = system: reactive oxygen species; type: cell-based, mouse
[3] = system: C2C12 myotubes
[4] = system: cytochrome c; type: cell-based, mouse
[5] = system: mtOXPHOS transcripts; type: cell-based, mouse
[6] = system: mitochondrial membrane potential; type: cell-based, mouse
[7] = system: cellular dehydrogenase activity
[8] = system: OXPHOS gene expression; type: cell-based, mouse
[9] = 20 μM, composite Z-score vs DMSO
[10] = 10.86 μM, composite Z-score vs DMSO
[11] = composite Z-score vs DMSO, Conc 20 μM
[12] = composite Z-score vs mock-treated (DMSO) wells, Conc 20 μM
[13] = normalized composite Z-score vs mock-treated (DMSO) wells, Conc 20 μM
[14] = composite Z-score vs DMSO wells, Conc 20 μM
[15] = Conc 20 μM, normalized score vs mock-treated (DMSO) wells

Compound: CCCN(CCC)C(=O)C(CCC(=O)O)NC(=O)c1ccccc1 (stereo not shown) [proglumide]
- nucOX [1, 9]: −0.394
- ROS [2, 9]: 2.083
- Viability [3, 9]: −0.750
- cyt c [4]: −0.001
- cyt c [4, 9]: −0.033
- mitoOX [5, 9]: −0.730
- ΔΨm [6, 9]: −0.910
- MTT [7, 9]: −1.254
- GE-HTS [8, 9]: −0.541

Compound: CC(C)[N+](C)(CCOC(=O)C1c2ccccc2Oc2ccccc21)C(C)C [propantheline]
- nucOX [1, 10]: 0.104
- nucOX [1, 9]: 0.254
- ROS [2, 10]: 0.589
- ROS [2, 9]: 2.062
- Viability [3, 10]: −0.361
- Viability [3, 9]: 0.142
- cyt c [4, 10]: −0.615
- cyt c [4, 9]: 0.379
- mitoOX [5, 10]: −1.055
- mitoOX [5, 9]: 0.783
- ΔΨm [6, 10]: −0.893
- ΔΨm [6, 9]: −0.082
- MTT [7, 10]: −1.670
- MTT [7, 9]: −1.026
- GE-HTS [8, 10]: −0.301
- GE-HTS [8, 9]: 0.458

Compound: CC[C@@H](C)C(=O)O[C@H]1[C@H](O)[C@H]2[C@@H](CN3C[C@@H](C)CC[C@H]3[C@@]2(C)O)[C@@H]2C[C@]34O[C@]5(O)[C@@H](OC(=O)[C@@](C)(O)CC)CC[C@@]3(C)[C@@H]5[C@@H](OC(C)=O)[C@@H](OC(C)=O)[C@H]4[C@@]21O [protoveratrine A]
- nucOX [1, 11]: −0.978
- ROS [2, 11]: −0.267
- Viability [3, 11]: 0.243
- cyt c [4, 11]: 1.155
- mitoOX [5, 11]: −1.108
- ΔΨm [6, 11]: 0.394
- MTT [7, 11]: −0.100
- GE-HTS [8, 11]: −1.106

Compound: CC1=CCc2c(cc3oc(C)cc(=O)c3c2O)OC1 [ptaeroxylin]
- nucOX [1, 12]: −0.907
- ROS [2, 12]: 0.259
- Viability [3, 12]: −0.025
- cyt c [4, 12]: 0.599
- mitoOX [5, 12]: −0.641
- ΔΨm [6, 12]: 0.238
- MTT [7, 12]: 0.160
- GE-HTS [8, 12]: −0.853

Compound: CC1(O)/C=C\C=C(\CO)C2CC(C)(C)C2(O)CC1 (stereo not shown) [punctaporin B]
- nucOX [1, 13]: −0.049
- ROS [2, 13]: 0.731
- Viability [3, 13]: 0.554
- cyt c [4, 13]: 0.175
- mitoOX [5, 13]: −0.555
- ΔΨm [6, 13]: −0.174
- MTT [7, 13]: −0.596
- GE-HTS [8, 13]: −0.242

Compound: CN1CCCN=C1/C=C/c1cccs1 [pyrantel pamoate]
- nucOX [1]: −0.500
- ROS [2]: 0.592
- Viability [3]: −1.934
- cyt c [4]: 0.640
- mitoOX [5]: −0.327
- ΔΨm [6]: −2.829
- MTT [7]: −0.189
- GE-HTS [8]: −0.468

Compound: CCc1nc(N)nc(N)c1-c1ccc(Cl)cc1 [pyrimethamine]
- nucOX [1, 14]: −0.526
- ROS [2, 14]: 0.329
- Viability [3, 14]: 0.994
- cyt c [4]: 1.048
- cyt c [4, 14]: −0.306
- mitoOX [5, 14]: −0.825
- ΔΨm [6, 14]: −0.696
- MTT [7, 14]: −1.810
- GE-HTS [8, 14]: −0.657

Compound: [O-][n+]1ccccc1[S-].[O-][n+]1ccccc1[S-].[Zn+2] [pyrithione zinc]
- nucOX (composite Z-score vs DMSO) [1]: −4.140
- ROS (composite Z-score vs DMSO) [2]: −2.405
- Viability (composite Z-score vs DMSO) [3]: −5.339
- cyt c (composite Z-score vs DMSO) [4]: −4.773
- mitoOX (composite Z-score vs DMSO) [5]: −0.770
- ΔΨm (composite Z-score vs DMSO) [6]: −3.529
- MTT (composite Z-score vs DMSO) [7]: −6.284
- GE-HTS (composite Z-score vs DMSO) [8]: −3.250

Compound: O=C(O)c1cccc(O)c1O [pyrocatechuic acid]
- nucOX [1, 11]: −0.324
- ROS [2, 11]: 1.147
- Viability [3, 11]: −1.076
- cyt c [4, 11]: −0.018
- mitoOX [5, 11]: −0.367
- ΔΨm [6, 11]: −1.204
- MTT [7, 11]: −1.800
- GE-HTS [8, 11]: −0.386

Compound: COC1=C[C@@H](C)[C@@H]2C[C@H]3OC(=O)C[C@H]4C(C)=C(OC)C(=O)[C@H]([C@@]2(C)C1=O)[C@@]34C [quassin, reference compound]
- nucOX [1, 9]: 0.205
- ROS [2, 9]: 0.925
- Viability [3, 9]: −0.688
- cyt c [4, 9]: −0.233
- mitoOX [5, 9]: −0.168
- ΔΨm [6, 9]: 0.033
- MTT [7, 9]: −0.400
- GE-HTS [8, 9]: 0.095

Compound: NC(=O)C1(O)C[C@@H](O)C(O)[C@H](O)C1 (stereo partly shown) [quinamide]
- nucOX (composite Z-score) [1, 15]: −0.529
- ROS (composite Z-score) [2, 15]: 0.405
- Viability (composite Z-score) [3, 15]: −0.397
- cyt c (composite Z-score) [4, 15]: 0.359
- mitoOX (composite Z-score) [5, 15]: 0.735
- ΔΨm (composite Z-score) [6, 15]: −0.518
- MTT (composite Z-score) [7, 15]: −1.034
- GE-HTS (composite Z-score) [8, 15]: −0.139

Compound: CCOC(=O)[C@H](CCc1ccccc1)N[C@@H](C)C(=O)N1Cc2ccccc2C[C@H]1C(=O)O [quinapril]
- nucOX [1, 9]: −0.127
- ROS [2, 9]: 1.175
- Viability [3, 9]: 0.034
- cyt c [4, 9]: 0.237
- mitoOX [5, 9]: −0.130
- ΔΨm [6, 9]: −0.276
- MTT [7, 9]: −1.111
- GE-HTS [8, 9]: −0.132
